In patent publication US6569633B1, “Modulation of the sulfonylurea receptor and calcium in adipocytes for treatment of obesity/diabetes” (Artecel Science, Inc., priority 1998, dated 2003):

Key:
Format in all cases: cell-based
human adipocytes [1] = experiment: Lipolysis (glycerol release into the culture medium) in human adipocytes
Method: FIG. 4. The anti-lipolytic effect of glibenclamide in human adipocytes. Activation of lipolysis in adipocytes is typically measured by release of glycerol into the media. Human adipocytes were treated with 10 μM glibenclamide alone, 10 μM glibenclamide plus 10 μM diazoxide or 10 μM glibenclamide plus 30 μM nitrendipine for 48 hr. Glycerol release was determined as described (19). *p<0.01 vs. Control.
Human adipocytes were examined for changes in lipolysis regulation by measurement of glycerol release into the media. Glycerol was measured by using a standard method (19), although other techniques for measuring glycerol would be equally useful.
Human subcutaneous abdominal adipose tissue was obtained from patients undergoing elective abdominal cosmetic surgery, although other types of adipose tissue, such as mesenteric, retroperitoneal, perirenal, or omental may be useful in identifying these compounds. Preadipocytes are isolated by collagenase treatment of the tissue and cultured adipocytes prepared as described (patent filed; Jan. 29, 1999; Ser. No. 09/240,029). Agents that regulate calcium flux in adipocytes as noted above can mediate lipolysis. Human adipocytes may be cultured in multi-well plates with different treatments between 1 hour or 24 hours as indicated, and glycerol release into the culture medium was determined as an indicator for lipolysis using a one-step enzymatic fluorometric method. The media collected from 1 hr treatments were used directly for glycerol measurements. For 24 hr treatments, media were removed, and cells were washed with Hank's Balanced Salt Solution and incubated in fresh medium for a further 10-60 min. This media were then used for glycerol measurements for 24 hr treatments.
We next investigated the role of adipocyte SUR1 on lipolysis. Lipolysis was measured as follows. Human adipocytes were treated as described below and glycerol release into the culture medium was determined as an indicator for lipolysis using a one step enzymatic fluorometric method (19). After treatment medium was obtained, HClO4 was added for deproteinization.
Agents that regulate calcium flux in adipocytes as noted above can mediate lipolysis. Human adipocytes (1 mL cells/well) were incubated in 24-well plates with different treatments for either 1 hour or 24 hours as indicated, and glycerol release into the culture medium was determined as an indicator for lipolysis using a one-step enzymatic fluorometric method. The media collected from 1 hr treatments were used directly for glycerol measurements. For 24 hr treatments, media were removed, and cells were washed with Hank's Balanced Salt Solution and incubated in fresh medium for a further 30 min. This media were then used for glycerol measurements for 24 hr treatments. After medium was collected, HClO4 was added to give a final concentration of 3% for deproteinization. The sample was centrifuged at 9000×g for 20 min. The supernatant was then collected and neutralized with 10N NaOH. Samples were stored at −80° C. prior to glycerol assay. Cells were collected, homogenized and stored at −80° C. for subsequent total protein correction by a modified Bradford method using Coomassie Blue dye (PIERCE, Rockford, Ill.).

[2] = tested on: FAS activity in human adipocytes; experiment: Fatty acid synthase (FAS) activity in human adipocytes
human adipocytes [3] = experiment: Triglyceride accumulation in human adipocytes; conditions: for triglyceride content: control 30.3±0.3
Method: Human subcutaneous abdominal adipocytes were isolated from healthy patients undergoing cosmetic liposuction using methodology we have previously described. Briefly, the tissue was washed several times with Hank's Balanced Salt Solution, minced into small fragments and digested with type I collagenase (1 mg/mL) in a shaking water bath at 37° C. for 30-40 minutes. Cells were then filtered through a sterile nylon filter (500 μm mesh) and cultured in Dulbecco's Modified Eagle's Medium (DMEM) supplemented with 1% fetal bovine serum, 1% bovine serum albumin, 100 U/mL penicillin, 100 μg/mL streptomycin and 50 μg/mL gentamicin. Cells were subsequently cultured in suspension in sterile polypropylene flasks in a humidified 37° C./5% CO2 incubator. After one day, suspended (floating) adipocytes were transferred to fresh medium and maintained as a thin layer at the top of the culture medium to ensure access to nutrients. The cells were maintained for another 24 hours in this medium and then changed to fresh medium with the addition of SUR agonists (such as glibenclamide) for up to 48 hours with the compounds to be tested. Medium was changed every 24 hours, and cell viability was verified with trypan blue exclusion at the end of representative experiments.
Stimulation of fatty acid synthase and concomitant inhibition of lipolysis results in increased lipid accumulation in human adipocytes. Adipocytes were treated as described above, harvested, and their triglyceride content was analyzed and normalized for protein content. […] Thus, these calcium-stimulated biochemical activities will contribute to the development of adipocyte hypertrophy and potentially obesity.

C=C[C@@]1(C)CC(=O)[C@]2(O)[C@@]3(C)[C@@H](O)CCC(C)(C)[C@@H]3[C@H](O)[C@H](OC(C)=O)[C@@]2(C)O1 [forskolin]
increase in lipolysis (human adipocytes [1]; 1 μM forskolin): 48%

[Cl-].[K+] [KCl]
lipolysis, % of control levels (human adipocytes [1]; 10 mM KCl, twenty-four hour exposure): 75.9±4.1% | inhibition of forskolin-induced lipolysis (human adipocytes [1]; 25 mM KCl, short-term (one-hour)): 42±5% | inhibition of forskolin-induced lipolysis (human adipocytes [1]; 40 mM KCl, short-term (one-hour)): 50±1.7% | fatty acid synthase activity ([2]; 40 mM KCl for two hours, harvested approximately 72 hours later, control 3.93±0.11): 6.24±0.2 nmol NADPH/min/mg protein | fatty acid synthase activity ([2]; 40 mM KCl, control 2.87 (diazoxide experiment)): 6.20±0.57 nmol/min/mg protein | triglyceride content (human adipocytes [3]; 40 mM KCl): 43.5±0.5 μg/mg protein

CCOC(=O)C1=C(C)NC(C)=C(C(=O)OC)C1c1cccc([N+](=O)[O-])c1 (stereo not shown) [nitrendipine]
fatty acid synthase activity ([2]; 1 nM insulin plus 30 μM nitrendipine): 4.12 ± 0.03 nmol/min/mg | reduction in insulin-stimulated triglyceride accumulation (human adipocytes [3]; 1 nM insulin plus nitrendipine): 40%

CNc1ccc2oc(C[C@H]3O[C@@]4(CC[C@H]3C)O[C@H]([C@H](C)C(=O)c3ccc[nH]3)[C@H](C)C[C@H]4C)nc2c1C(=O)O [A23187]
triglyceride accumulation (human adipocytes [3]; two-hour exposure to 10 nM A23187, ensuing 48 hours, control 31.4±2.4): 52±7 μg/mg protein

insulin
fatty acid synthase activity ([2]; 1 nM insulin, control 3.95±0.11): 14.56±0.22 nmol/min/mg protein

NC(=O)CC[C@@H]1NC(=O)[C@H](Cc2ccccc2)NC(=O)[C@H](Cc2ccc(O)cc2)NC(=O)[C@@H](N)CSSC[C@@H](C(=O)N2CCC[C@H]2C(=O)N[C@@H](CCCN=C(N)N)C(=O)NCC(N)=O)NC(=O)[C@H](CC(N)=O)NC1=O [AVP, arginine vasopressin]
inhibition of forskolin-induced lipolysis (human adipocytes [1]; 1 nM AVP, short-term): 56±6.6% | fatty acid synthase activity ([2]; 1 nM AVP): 6.9±0.1 nmol/min/mg protein

B1: agouti: recombinant agouti protein, purified agouti gene product from a baculovirus expression system (protein, UniProt Q03288 23-131, looked up)
Agouti-signaling protein: HLALEETLGDDRSLRSNSSMNSLDFSSVSIVALNKKSKKISRKEAEKRKRSSKKKASMKKVARPPPPSPCVATRDSCKPPAPACCDPCASCQCRFFGSACTCRVLNPNC
decrease in basal lipolysis (human adipocytes [1]; 100 nM recombinant agouti, 24 hr): 60% | effect on basal lipolysis (human adipocytes [1]; 100 nM recombinant agouti, short-term (1 hr)): no effect | forskolin-induced increase in lipolysis (human adipocytes [1]; 1 μM forskolin plus 100 nM agouti): reversed | ACTH-induced lipolysis (human adipocytes [1]; short-term agouti treatment): totally inhibited

B2: parathyroid hormone (peptide, UniProt P01270 32-115, looked up)
Parathyroid hormone: SVSEIQLMHNLGKHLNSMERVEWLRKKLQDVHNFVALGAPLAPRDAGSQRPRKKEDNVLVESHEKSLGEADKADVNVLTKAKSQ
modifications: Parathyroid hormone
notes: stimulator of receptor-mediated Ca2+ influx
fatty acid synthase activity ([2]; 4.8 nM PTH): 6.9±0.1 nmol/min/mg protein | triglyceride content (human adipocytes [3]; 4.8 nM PTH): 54.5±0.6 μg/mg protein
